Columns and labels:
[1] = Transmission electron microscopy of micelles; format: physicochemical; conditions: 20 μM peptide or PA with or without 2.22 μM Pam2CSK4 (90/10) in PBS, Nano-W negative stain
Procedure: Solutions of 20 μM peptide or PA with or without 2.22 μM Pam2CSK4 were prepared in PBS from which 5 μL was pipetted onto a carbon-coated copper transmission electron microscopy (TEM) grid and incubated for 3–5 min before excess solution was wicked away using filter paper. Then, 5 μL Nano-W (2% methylamine tungstate) was pipetted on the grid and incubated for 3–5 min before being removed by wicking. Grids were imaged using a JEOL JEM-1400 Transmission Electron Microscope (Tokyo, Japan) at 15,000× and 25,000× magnification. Micrographs of peptide or PA were compared against reference micrographs of Nano-W with or without PBS to ensure proper identification of micellar structures.

[2] = tested on: bone marrow-derived dendritic cells (BMDCs); experiment: BMDC cytokine secretion (sandwich ELISA of supernatant); format: cell-based, BALB/c mice; conditions: 24 h treatment, 0.2 μM Pam2CSK4, supernatant ELISA
Procedure: Bone marrow was harvested from the femurs and tibias of 4-month-old BALB/c mice and red blood cells were lysed using ammonium-chloride-potassium (ACK) lysing buffer. Bone marrow cells were cultured in complete RPMI media (i.e., 10% FBS, 100 U/mL penicillin, 100 μg/mL streptomycin, and 50 μM β-mercaptoethanol) with 20 ng/mL granulocyte-macrophage colony-stimulating factor (GM-CSF) to promote differentiation into bone marrow-derived dendritic cells (BMDCs). After 10 days, BMDCs were plated in untreated 24-well plates and cultured with peptide or PA for 24 h. Supernatants were collected and stored at −20 °C for later use. BMDCs were harvested and processed for flow cytometry analysis. More specifically, cells were removed from the plate, blocked with Trustain FcX anti-mouse CD16/32 antibody (BioLegend), then stained with phycoerythrin-Cyaninine7 (PE-Cy7) anti-mouse CD11c (BioLegend), fluorescein isothiocyanate (FITC) anti-mouse CD40 (BioLegend), and allophycocyanin (APC) anti-mouse MHC II (BioLegend) before being fixed with 4% para-formaldehyde. Cells were analyzed on a BD LSR Fortessa Flow Cytometer (Franklin Lakes, NJ, USA) within 48 h after fixation. Events were gated according to the strategy shown in Figure S2, with viable samples having a “valid cells” gate of at least 45% of the total events. […]

Substance: Pam2CSK4
- Micelle morphology (TEM) [1]: mostly small spherical micelles
- IL-12/IL-23 (p40) secretion [2]: higher production
- TNF-α secretion [2]: higher production

Source: paper PMC11597048, “M2e-Derived Peptidyl and Peptide Amphiphile Micelles as Novel Influenza Vaccines” (Pharmaceuticals, 2024)
